In US20050250677A1, “Glycopeptide antibiotic derivatives” (priority 2002, published 2005):
Where two headings read alike, the source gives them in different places.

How the values were obtained:
VZV (wild-type strains) = assay: Anti-VZV assay (wild-type strains): virus-induced cytopathicity in HEL cell cultures; type: cell-based, varicella-zoster virus
HEL cells [1] = tested on: HEL cells
HEL cells [2] = conditions: read-out: CC50 (HEL), HEL cells
CMV = assay: Anti-CMV assay: virus-induced cytopathicity in HEL cell cultures
HIV-1 (IIIB) = assay: Inhibition of HIV-1 (IIIB)-induced cytopathicity (giant cell formation) in CEM cells; type: cell-based; conditions: read-out: EC50 HIV-1 (concentration required to inhibit HIV-induced giant cell formation by 50%); HIV-1, CEM cell cultures
Procedure: (§1) A variety of glycopeptide antibiotic derivatives of vancomycin, eremomycin and teicoplanin including their aglycon derivatives were evaluated for their inhibitory activity against HIV-1 (IIIB) and HIV-2(ROD) in CEM cell cultures.

HIV-2(ROD) = assay: Inhibition of HIV-2 (ROD)-induced cytopathicity (giant cell formation) in CEM cells; type: cell-based; conditions: read-out: EC50 HIV-2 (concentration required to inhibit HIV-induced giant cell formation by 50%); HIV-2, CEM cell cultures
Procedure: as §1

FCV = assay: Feline corona virus assay in Feline Crandel kidney cells (MTS); type: cell-based; conditions: for EC50: FCV in FCK cells, read-out: EC50 FCV
Procedure: Feline Crandel kidney cells were seeded in 96-well microtiter plates at 24,000 cells/well. Then, 24 hrs later, an appropriate inoculum of FCV is added together with 5-fold dilutions of the test compounds. After 4 days, a MTS/PMS solution was added to each well. Following a 90 min incubation period at 37° C., the optical density of the wells was read at 498 nm in a microplate reader.

[3] = tested on: SARS virus (strain Frankfurt-1); assay: microbe, parasite or virus in culture; type: cell-based, human corona (SARS) virus; conditions: SARS virus in Vero cells; read-out: EC50 SARS virus
FCK cells = conditions: read-out: CC50 FCK; FCK cells
Vero cells = conditions: read-out: CC50 Vero
murine leukemia L1210 = assay: Cytostatic activity assay, L1210 cells; type: cell-based; conditions: read-out: IC50 L1210 (compound concentration required to inhibit tumor cell proliferation by 50%)
[4] = tested on: human lymphocyte Molt4/clone 8; assay: Cytostatic activity assay, Molt4/clone 8 cells; type: cell-based; conditions: read-out: IC50 Molt4/C8 (compound concentration required to inhibit tumor cell proliferation by 50%)
human lymphocyte CEM = assay: Cytostatic activity assay, CEM cells; type: cell-based; conditions: read-out: IC50 CEM (compound concentration required to inhibit tumor cell proliferation by 50%)
[5] = VZV strain OKA, HEL cell cultures, read-out: EC50 VZV (OKA)
[6] = VZV strain YS, HEL cell cultures, read-out: EC50 VZV (YS)
[7] = read-out: EC50 CMV AD-169, CMV strain AD-169, HEL cell cultures
[8] = read-out: EC50 CMV Davis, CMV strain Davis, HEL cell cultures

| Compound | EC50 (VZV (wild-type strains); [5]) [nM] | EC50 (VZV (wild-type strains); [6]) [nM] | MTC (HEL) (HEL cells [1]; anti-CMV table) | MTC (HEL) (HEL cells [1]; anti-VZV table) | CC50 (HEL cells [2]; anti-CMV table) [µM] | CC50 (HEL cells [2]; anti-VZV table) [µM] | EC50 (CMV; [7]) [µM] | EC50 (CMV; [8]) [µM] | EC50 (HIV-1 (IIIB)) [nM] | EC50 (HIV-2(ROD)) [µM] | CC50 (FCK cells) [µM] | IC50 (murine leukemia L1210) [µM] | IC50 [4] [µM] | IC50 (human lymphocyte CEM) [µM] | other results |
| --- | --- | --- | --- | --- | --- | --- | --- | --- | --- | --- | --- | --- | --- | --- | --- |
| NC1C(=O)NC2Cc3ccc(c(Cl)c3)Oc3cc4cc(c3O)Oc3ccc(cc3Cl)C(O)C3NC(=O)C(NC(=O)C4NC(=O)C(NC2=O)c2cc(O)cc(c2)Oc2cc1ccc2O)c1ccc(O)c(c1)-c1c(O)cc(O)cc1C(C(=O)N1CCN(Cc2ccc(C=Cc4ccccc4)cc2)CC1)NC3=O (centres unmarked) [Compound 127] | 700 | 300 | ≧5-20 μM | ≧5-20 μM | 44 | 44 | 10 | > 5 |  |  |  |  |  |  |  |
| CNC(CC(C)C)C(=O)NC1C(=O)NC(CC(N)=O)C(=O)NC2C(=O)NC3C(=O)NC(C(=O)NC(C(=O)O)c4cc(O)cc(O)c4-c4cc3ccc4O)C(O)c3ccc(c(Cl)c3)Oc3cc2cc(c3OC2OC(CO)C(O)C(O)C2OC2CC(C)(NCc3ccc(-c4ccc(Cl)cc4)cc3)C(O)C(C)O2)Oc2ccc(cc2Cl)C1O (centres unmarked) [Compound 59] | 870 | 890 | 5 to 20 µM | 5 to 20 µM | > 50 | > 50 | > 5 | 16 |  |  |  |  |  |  | EC50 (VZV (wild-type strains); read-out: EC50 against VZV): 870 to 890 nM; anti-CMV activity (CMV): anti-CMV activity |
| O=C1NC2C(=O)NC3C(=O)NC4C(=O)NC(C(=O)NC(C(=O)O)c5cc(O)cc(O)c5-c5cc4ccc5O)C(O)c4ccc(c(Cl)c4)Oc4cc3cc(c4O)Oc3ccc(cc3Cl)CC1NC(=O)C(NCc1ccc(-c3ccccc3)cc1)c1ccc(O)c(c1)Oc1cc(O)cc2c1 (centres unmarked) [Compound 122] | 1000 | 1000 | 20 to 50 µM | 20 to 50 µM | > 50 | > 50 | > 20 |  |  |  |  |  |  |  |  |
| O=C(NC1C(=O)NC2Cc3ccc(c(Cl)c3)Oc3cc4cc(c3O)Oc3ccc(cc3Cl)C(O)C3NC(=O)C(NC(=O)C4NC(=O)C(NC2=O)c2cc(O)cc(c2)Oc2cc1ccc2O)c1ccc(O)c(c1)-c1c(O)cc(O)cc1C(C(=O)O)NC3=O)C(=O)c1c[nH]c2ccccc12 (centres unmarked) [Compound 163] |  |  |  |  |  |  |  |  | 10000 | 15 | 63 |  |  |  | EC50 (FCV): 2.2 µM; EC50 [3]: 26 µM; CC50 (Vero cells): > 100 µM |
| CCCCCCCCCCCCNCc1c(O)cc2c(c1O)-c1cc(ccc1O)C1NC(=O)C3NC(=O)C(CC(N)=O)NC(=O)C(NC(=O)C(CC(C)C)NC)C(O)c4ccc(c(Cl)c4)Oc4cc3cc(c4OC3OC(CO)C(O)C(O)C3OC3CC(C)(N)C(O)C(C)O3)Oc3ccc(cc3)C(OC3CC(C)(N)C(O)C(C)O3)C(NC1=O)C(=O)NC2C(=O)O (centres unmarked) [Compound 64] |  |  |  |  |  |  |  |  |  |  | 75 |  |  |  | activity against FCV (FCV): active; EC50 (FCV): 8.2 µM; EC50 [3]: 31 µM; CC50 (Vero cells): > 100 µM |
| CCCCCCCCCC[N+](C)(C)CCCNCc1c(O)cc2c(c1O)-c1cc(ccc1O)C1NC(=O)C3NC(=O)C4NC(=O)C(Cc5ccc(c(Cl)c5)Oc5cc3cc(c5O)Oc3ccc(cc3Cl)C(O)C(NC1=O)C(=O)NC2C(=O)NCCC[N+](C)(C)CCCCCCCCCC)NC(=O)C(N)c1ccc(O)c(c1)Oc1cc(O)cc4c1 (centres unmarked) [Compound 37] | 1500 | > 2000 | ≧2-20 μM | ≧2-20 μM | 43 | 43 | > 5 | 3.5 | 1600 ± 580 | 4.3 ± 0.58 |  | 12 ± 2 | 19 ± 12 | 9.4 ± 1.9 |  |
| CNC(=O)C1NC(=O)C2NC(=O)C(NC(=O)C3NC(=O)C(CC(N)=O)NC(=O)C(NC(=O)C(CC(C)C)N(C)C(=O)OC(C)(C)C)C(O)c4ccc(c(Cl)c4)Oc4cc3cc(c4O)Oc3ccc(cc3)C2O)c2ccc(O)c(c2)-c2c1cc(O)c(CN1CCN(Cc3ccc(-c4ccccc4)cc3)CC1)c2O (centres unmarked) [Compound 7] | 1000 | 870 |  | ≧20 μM |  | > 50 |  |  | 4000 | 3.5 ± 0.7 | > 50 | 84 ± 22 | > 100 | > 100 | activity against VZV (VZV (wild-type strains)): pronounced activity; activity against FCV (FCV): pronounced activity; EC50 (FCV): 3.6 µM |
| CCCCCCCCCC[N+](C)(C)CCCNC(=O)C1NC(=O)C2NC(=O)C(NC(=O)C3NC(=O)C4NC(=O)C(Cc5ccc(c(Cl)c5)Oc5cc3cc(c5O)Oc3ccc(cc3Cl)C2O)NC(=O)C(N)c2ccc(O)c(c2)Oc2cc(O)cc4c2)c2ccc(O)c(c2)-c2c1cc(O)c(CN1CC[N+](C)(CCCCCCCCCC)CC1)c2O (centres unmarked) [Compound 39] | 900 | 810 | ≧5 μM | ≧5 μM | 170 | 170 | > 2 | 4 |  | 1.3 ± 0.21 |  | 7.3 ± 0.3 | 14 ± 3 | 14 ± 2 |  |
| CCCCCCCCCC[N+](C)(C)CCCNC(=O)C1NC(=O)C2NC(=O)C(NC(=O)C3NC(=O)C4NC(=O)C(Cc5ccc(c(Cl)c5)Oc5cc3cc(c5O)Oc3ccc(cc3Cl)C2O)NC(=O)C(N)c2ccc(O)c(c2)Oc2cc(O)cc4c2)c2ccc(O)c(c2)-c2c(O)cc(O)cc21 (centres unmarked) [Compound 27] | 1000 | 800 | ≧2-50 μM | ≧2-50 μM | > 200 | > 200 | ≥ 5 | 3.5 | 1500 ± 420 | 2.3 ± 0.21 |  | 9.1 ± 0.9 | 28 ± 0.4 | 18 ± 3 | anti-CMV activity (CMV): anti-CMV activity |
| CNC(CC(C)C)C(=O)NC1C(=O)NC(CC(N)=O)C(=O)NC2C(=O)NC3C(=O)NC(C(=O)NC(C(=O)N(C(=O)NC4CCCCC4)C4CCCCC4)c4cc(O)cc(O)c4-c4cc3ccc4O)C(O)c3ccc(cc3)Oc3cc2cc(c3O)Oc2ccc(cc2Cl)C1O (centres unmarked) [Compound 102] |  |  |  |  |  |  |  |  | 7500 ± 4800 | 32.5 ± 3.5 | > 100 | > 250 | > 250 | > 250 | EC50 [3]: 68 µM; CC50 (Vero cells): > 100 µM |
| CCCCCCCCCNCc1c(O)cc2c(c1O)-c1cc(ccc1O)C1NC(=O)C3NC(=O)C4NC(=O)C(Cc5ccc(c(Cl)c5)Oc5cc3cc(c5O)Oc3ccc(cc3Cl)C(O)C(NC1=O)C(=O)NC2C(=O)NCCCN(C)C)NC(=O)C(N)c1ccc(O)c(c1)Oc1cc(O)cc4c1 (centres unmarked) [Compound 21] | 1300 | 2000 | 5 to 50 µM | 5 to 50 µM | 107 | 107 | 8 |  | 2200 | 6.5 ± 0.7 |  | 43 ± 6 | 136 ± 33 | 179 ± 1 | anti-CMV activity (CMV): anti-CMV activity |
| NC1C(=O)NC2Cc3ccc(c(Cl)c3)Oc3cc4cc(c3O)Oc3ccc(cc3Cl)C(O)C3NC(=O)C(NC(=O)C4NC(=O)C(NC2=O)c2cc(O)cc(c2)Oc2cc1ccc2O)c1ccc(O)c(c1)-c1c(O)cc(O)cc1C(C(=O)N1CCN(Cc2ccc4ccccc4c2)CC1)NC3=O (centres unmarked) [Compound 25] | 1000 | 600 | 20 to 200 µM | 20 to 200 µM | > 50 | > 50 | 30 |  | 2100 ± 1300 | 5 |  | 175 ± 44 | 47 ± 4 | 113 ± 28 | anti-CMV activity (CMV): anti-CMV activity |
| NC1C(=O)NC2Cc3ccc(c(Cl)c3)Oc3cc4cc(c3O)Oc3ccc(cc3Cl)C(O)C3NC(=O)C(NC(=O)C4NC(=O)C(NC2=O)c2cc(O)cc(c2)Oc2cc1ccc2O)c1ccc(O)c(c1)-c1c(O)cc(O)cc1C(C(=O)O)NC3=O (centres unmarked) [Compound 159] |  |  |  |  |  |  |  |  |  |  | 85 |  |  |  | EC50 (FCV): 9.9 µM; EC50 [3]: 28 µM; CC50 (Vero cells): > 100 µM |
| CCCCCCCCCCNC1(C)CC(OC2C(Oc3c4cc5cc3Oc3ccc(cc3Cl)C(O)C(NC(=O)C(CC(C)C)NC)C(=O)NC(CC(N)=O)C(=O)NC5C(=O)NC3C(=O)NC(C(=O)NC(C(=O)O)c5cc(O)cc(O)c5-c5cc3ccc5O)C(OC3CC(C)(N)C(O)C(C)O3)c3ccc(cc3)O4)OC(CO)C(O)C2O)OC(C)C1O (centres unmarked) [Compound 68] | > 2000 | 700 | 5 to 50 µM | 5 to 50 µM | > 200 | > 200 | 20 | > 20 |  |  |  |  |  |  |  |
